T1: hPF4 bound to surface GAGs of murine platelets (Homo sapiens, UniProt P02776)
T1 construct: made in house; host or cells: E. coli BL21DE30 pLysS, pT7-7 plasmid
T1 sequence (P02776 32-101): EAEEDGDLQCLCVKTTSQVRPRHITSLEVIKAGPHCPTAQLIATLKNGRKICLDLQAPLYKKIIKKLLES

B1: heparinase 1: heparinase I (Sigma), enzyme used to pretreat platelets (protein, UniProt Q05819 22-384, looked up)
Heparin lyase I: QQKKSGNIPYRVNVQADSAKQKAIIDNKWVAVGINKPYALQYDDKLRFNGKPSYRFELKAEDNSLEGYAAGETKGRTELSYSYATTNDFKKFPPSVYQNAQKLKTVYHYGKGICEQGSSRSYTFSVYIPSSFPDNATTIFAQWHGAPSRTLVATPEGEIKTLSIEEFLALYDRMIFKKNIAHDKVEKKDKDGKITYVAGKPNGWKVEQGGYPTLAFGFSKGYFYIKANSDRQWLTDKADRNNANPENSEVMKPYSSEYKTSTIAYKMPFAQFPKDCWITFDVAIDWTKYGKEANTILKPGKLDVMMTYTKNKKPQKAHIVNQQEILIGRNDDDGYYFKFGIYRVGNSTVPVTYNLSGYSETAR

Assays:
[1] = test system: hPF4/FcγRIIA double transgenic mice given KKO; test: Therapeutic intervention in the murine HIT model (platelet counts after KKO); format: in vivo, mouse
Method: Transgenic mice expressing different amounts of hPF4 mRNA per platelet have been described previously (26). Three lines bearing 1, 6 and 22 copy numbers of the human PF4 gene/haplotype were used. […] Transgenic mice expressing FcγRIIA were generously provided by Steven McKenzie, Thomas Jefferson University (30) and crossbred with these hPF4 mice. All murine lines were backcrossed onto the C57BL/6J background>8 times. Genomic makeup of mice was determined by PCR analysis using oligonucleotide primers described previously (26,30). Controls included littermates transgenic for hPF4 or FcγRIIA only. Mice were 6-10 weeks of age at the time of study. Total platelet hPF4 levels in the various transgenic hPF4 lines were determined using an Asserachrom PF4 kit (Diagnostica Stago) as per the manufacturer using recombinant hPF4 as the standard. Mouse blood was obtained by retroorbital puncture. The plate was read at 450 nm in a THERMOmax microplate reader (Molecular Devices). Measurements of surface KKO binding in vivo in WT and the hPF4 transgenic mice were determined after IV injection of 20 μg of FITC-labeled KKO in 200 μL of sterile PBS via the tail vein followed by withdrawal of 50 μL of blood from the retroorbital plexus 10 min later. The blood was coimmunostained for CD41, and KKO binding to CD41-positive cells was estimated by flow cytometry. In other studies, KKO was injected intraperitoneally (IP) in a final volume of 200 μL diluted with sterile PBS. Porcine heparin (200 μL of 100 U/mL stock; Abbott Laboratories) was injected subcutaneously (SQ) in a subgroup of studied animals beginning at 24 hrs for 4 consecutive days. Complete blood counts were measured in 50 μl of whole blood obtained by retroorbital puncture into Safe-T-Fill® minicapillary blood collection tubes (Kabe Labortechnik). Platelets were enumerated using an automatic cell counter (HEMAVET, Drew Scientific). In the therapeutic intervention studies, either porcine heparin (100 U/kg) or protamine sulfate (2 mg/kg) were injected IV over 2 mins. KKO (200 μg) was given IP 1 hr later (zero time point). Injection of heparin or protamine was repeated 21 and 45 hr later. Blood counts were determined as above.
Platelet counts between groups were compared using the Student's t-test. Statistical analyses were performed using Graph Pad Prism (Graphpad Software). Differences were considered significant at a p value of <0.05.

[2] = biological target: T1, hPF4 bound to surface GAGs of murine platelets; test: KKO binding to murine platelets in the presence of hPF4 (flow cytometry); parameters: species or system mouse; conditions: mPF4 null platelets, enzyme 0-5 U/ml, 37° C., 30 min
Method: Studies were performed using human platelets or platelets from WT and transgenic mice (see below for the description of the mice). Human blood was collected after informed consent from healthy, aspirin-free volunteers in acid citrate dextrose (ACD, pH 4.5, 10:1, vol/vol) under a protocol approved by the Institutional Review Board for Studies involving Human Subjects of the Children's Hospital of Philadelphia. All studies involving mice were approved by the same Institution's Institute Animal Care and Use Committee. Blood was centrifuged at 200 g for 15 min at room temperature (RT) to generate platelet-rich plasma (PRP). PGE1 (final concentration 1 μg/mL, Sigma) was added to the PRP to prevent spontaneous platelet activation. […] Total immunodetectable platelet hPF4 was determined using murine platelets completely deficient in murine PF4 (mPF4 null (29)). […] Autoradiograpic bands over the linear range of exposure were analyzed on a UMAX Vista-58 scanner, and the data analyzed by developing a histogram of the calculated density using the NIH program ImageJ (rsb.info.nih.gov). Total surface PF4 binding was also detected using mPF4 null platelets after paraformaldehyde crosslinking, as above. […] FITC-labeled KKO (50 μg/mL) was added for 15 min, the sample was diluted 1/10 with Tyrode's buffer and antibody binding was measured by flow cytometry as above. […]

[3] = hPF4Mid/FcγRIIA+ mice, heparin 100 U/kg or protamine sulfate 2 mg/kg IV 1 hr before 200 μg KKO IP

| Molecule | Effect on KKO-induced thrombocytopenia ([1]; hPF4High/FcγRIIA+ mice, heparin 100 U/kg or protamine sulfate 2 mg/kg IV) | Platelet counts versus mice receiving antibody alone at 24 and 48 hr ([1]; hPF4High/FcγRIIA+ mice, protamine sulfate 2 mg/kg IV) | Effect on KKO-induced thrombocytopenia at 3 hr [1, 3] | Effect on KKO-induced thrombocytopenia at 24 hr [1, 3] | Platelet counts after repeat doses on the second and third days ([1]; hPF4Mid/FcγRIIA+ mice, repeat at 21 and 45 hr) | Effect of pretreating platelets on KKO binding [2] |
| --- | --- | --- | --- | --- | --- | --- |
| protamine sulfate | retained its efficacy | significantly higher | prevented thrombocytopenia | decreased the severity of thrombocytopenia | maintained platelet counts above the level in mice that had received KKO alone | – |
| B1 | – | – | – | – | – | not heparinase 1 alone (data not shown), decreased KKO binding |

— patent US20070190582A1, “Platelet surface PF4 antigenic complexes as a diagnostic indicator in heparin-induced thrombocytopenia” (priority 2005, published 2007)
